Legend:
Human rIgA1 (poly-rIgA) = molecular target: T1, Human rIgA1 (poly-rIgA) (Homo sapiens, UniProt P01876); assay: SEC of human rIgA (HEK293-produced) after treatment; type: biochemical; conditions: human rIgA from HEK293 cells, FIG. 5 B
T1 construct: IL-2 signal peptide (N, cleaved yes); 6xHis (N); made in house; host or cells: HEK293
Description: (§1) The overall complex size of IgA aggregates was determined either by size-exclusion chromatography (SEC: Superdex 200 Increase 10/300 by GL Cytiva), or by SDS-PAGE. For evaluating the involvement of intermolecular disulfide connectivity in IgA complexes, IgA samples were treated with either reducing agents, such as DTT, TCEP or reduced glutathione (Sigma), or interventional drugs, such as cysteamine (Sigma), WR-1065 (Sigma) and N-Acetyl-L-cysteine (VWR Chemicals) in phosphate-buffered saline (PBS) pH7.4. Before running on SEC, samples were treated with the drugs at indicated concentrations at 37° C. for one hour.
In the meantime, the SEC column was also equilibrated with PBS supplemented with the reducing agent at the same concentration. For running SEC, 100 μL of the recombinant IgA (concentration varies between 1 mg/mL and 8 mg/mL) or purified native human IgA1 (˜1 mg/mL) was loaded to the column and UV absorption was recorded following elution. Recombinant IgA typically formed two elution peaks: a minor peak of ˜800 kDa poly-rIgA followed by a major peak of ˜170 kDa of monomeric rIgA. The ratios between poly-rIgA and mono-rIgA were calculated as between the corresponding areas under the curve (AUC), and the treatment effect of the thiol agents was judged by the reduction of the poly-rIgA level with a compensatory increase of the mono-rIgA content. […]

human IgA1 (poly-IgA1) = molecular target: T2, human IgA1 (poly-IgA1) (Homo sapiens, UniProt P01876); assay: SEC of native human IgA1 treated ex vivo; type: biochemical; conditions: IgA1 from pooled plasma of IgA nephropathy patients, different concentrations, FIG. 5 C
T2 construct: human IgA1 whole molecule was purified from pooled plasma of IgA nephropathy patients; from tissue
T2 sequence (P01876 1-353 isoform P01876-1): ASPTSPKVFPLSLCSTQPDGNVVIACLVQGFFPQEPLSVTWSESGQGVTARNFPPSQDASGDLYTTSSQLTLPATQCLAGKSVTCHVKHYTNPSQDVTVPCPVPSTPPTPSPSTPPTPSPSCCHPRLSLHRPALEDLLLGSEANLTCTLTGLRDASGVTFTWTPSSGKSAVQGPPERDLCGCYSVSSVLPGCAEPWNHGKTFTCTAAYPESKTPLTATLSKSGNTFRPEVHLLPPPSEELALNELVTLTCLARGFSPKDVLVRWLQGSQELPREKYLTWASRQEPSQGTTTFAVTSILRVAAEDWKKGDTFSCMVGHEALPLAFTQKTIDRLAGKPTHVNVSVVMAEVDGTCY
Excerpt: IgA1 from IgA nephropathy patient sera was purified by Jacalin (Thermo Scientific, USA)-directed affinity chromatography. Poly-IgA1 contents were further enriched via running Superdex 200 Increase gel filtration molecular sieve (GE Biosciences) and collecting high-molecular weight fractions from an AKTA protein purification system (GE Biosciences). Human serum from healthy donors was purchased from Sigma-Aldrich and total IgA1 was also purified by running Jacalin-directed chromatography. Purified total IgA1 was used for injecting mice.
as §1
In the meantime, the SEC column was also equilibrated with PBS supplemented with the reducing agent at the same concentration. For running SEC, 100 μL of the recombinant IgA (concentration varies between 1 mg/mL and 8 mg/mL) or purified native human IgA1 (˜1 mg/mL) was loaded to the column and UV absorption was recorded following elution. Recombinant IgA typically formed two elution peaks: a minor peak of ˜800 kDa poly-rIgA followed by a major peak of ˜170 kDa of monomeric rIgA. The ratios between poly-rIgA and mono-rIgA were calculated as between the corresponding areas under the curve (AUC), and the treatment effect of the thiol agents was judged by the reduction of the poly-rIgA level with a compensatory increase of the mono-rIgA content.
In addition, human IgA1 whole molecule was purified from pooled plasma of IgA nephropathy patients and subjected the sample to different concentrations of cysteamine (FIG. 5, part C). […]

T1 sequence (P01876 121-353 isoform P01876-1): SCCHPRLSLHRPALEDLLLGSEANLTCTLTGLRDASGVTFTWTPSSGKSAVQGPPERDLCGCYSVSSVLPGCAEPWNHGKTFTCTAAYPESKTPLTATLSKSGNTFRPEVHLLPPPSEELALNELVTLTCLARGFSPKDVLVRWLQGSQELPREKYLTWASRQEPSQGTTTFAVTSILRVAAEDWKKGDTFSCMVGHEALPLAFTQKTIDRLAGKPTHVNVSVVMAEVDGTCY

- poly-rIgA level (SEC) (Human rIgA1 (poly-rIgA)): reduction of poly-rIgA levels
- poly-IgA1 amount (SEC) (human IgA1 (poly-IgA1)): reduced the amounts of poly-IgA1
Compound: NCCS [cysteamine]

Reference: US12263144B2, “Methods of treating IgA nephropathy with thiol-containing molecules” (Accubit LLC—Biotechnology, priority 2020, dated 2025)
